Data from patent US8436030B2, “Polymorphic forms of deferasirox (ICL670A)” (Navartis AG, priority 2006, dated 2013).

Test: Solubility of solid forms (comparative statement)
Format: physicochemical
Conditions: as compared to the crystalline form A or B

- solubility: highest solubility
Compound: O=C(O)c1ccc(-n2nc(-c3ccccc3O)nc2-c2ccccc2O)cc1 [amorphous form, 4-[3,5-bis(2-hydroxyphenyl)-[1,2,4]triazol-1-yl]benzoic acid]
